Experimental findings from patent publication US11584710B2, “Compounds for treating infections” (HORITZONTS TECNOLOGICS HUNGARY KORLÁTOLT FELELOSSÉGU …, priority 2017, dated 2023) are described below.

pIC50: −log10 of the molar value. Where only a bound is given, the exact number is not on record here.

What all share (type): cell-based
One data set concerns P. aeruginosa. The experiment in a line: Kirby-Bauer disk diffusion susceptibility test. The settings on record: for Antibiotic activity (Table VIII, zone of inhibition): 300 μg. On the procedure: (§1) Bacterial strains, from clinical origin, were supplied by the National Center for Microbiology, Institute of Health Carlos III (Majadahonda, Madrid). They are detailed in Table 1.
(§2) Bacterial cells suspension in sterile saline was prepared from a culture of 24-72 h, depending on bacterial species, in Mueller-Hinton Agar with 5% sheep blood. Each suspension was adjusted to a fixed size inoculum of 1-5×10^8 CFU/ml with a spectrophotometer (Ferraro, MJ National Committee for Clinical Laboratory Standards. 2000).
(§3) Kirby-Bauer disk diffusion susceptibility test protocol was utilized to determine the sensitivity or resistance of pathogenic bacteria against the compounds and others antibiotics. The absence of growth around the disks is an indirect measure of the ability of this compound to inhibit an organism (Kirby, W., et al., Antibiotics Annu. 1956-1957:892). After 18 to 72 hours of incubation at 37° C., with or without CO2, under aerobic or anaerobic conditions, depending on the bacterial species, halo of growth inhibition were obtained and evaluated.
(§4) Interpretation of susceptibility and resistance was based on the presence or absence of a zone of inhibition surrounding the disk. Kirby-Bauer disk diffusion susceptibility test is a common method which uses antibiotic-impregnated wafers to test whether bacteria are affected by antibiotics. The size of the zone of inhibition depends on how effective the antibiotic is at stopping the growth of the bacterium. A stronger antibiotic will create a larger zone, because a lower concentration of the antibiotic is enough to stop growth.
(§5) All compounds were tested at 300 μg/disc.
(A growth-free zone around the sample is the usual read-out of agar diffusion tests.)

The next data set concerns A. baumannii. The experiment in a line: Kirby-Bauer disk diffusion susceptibility test. The settings on record: for Antibiotic activity (Table VIII, zone of inhibition): 300 μg. Here is the method:
as §1, §2, §3, §4, §5

Data set [1] in a line: Cellular viability, CellTiter Glo. As to conditions: human; MT-2 cells; concentration required to kill 50% of cells; read-out: CC50 VIH MT-2 μM. On the procedure:
All assays for assessing anti-HIV activity were taken in parallel to determine cellular viability of the culture in the presence or absence of different concentrations of the isolated molecule. It was followed exactly the same methodology as in the anti-HIV assay except with the addition of complete DMEM medium instead of supernatant viral, in the same proportion, and the detection of the viability was performed with the viability detection kit CellTiter Glo (Promega), following manufacturer instructions. Viability is directly proportional to the luciferase activity obtained. All data are expressed as percentage relative to a control with DMSO at the same concentration. Antiviral activity and toxicity curves were performed to the compound at different concentrations.

The next data set concerns HIV. The experiment in a line: Anti-HIV assay, recombinant virus with Renilla reporter gene in MT-2 cells. As to conditions: Human immunodeficiency virus 1, MT2, read-out: IC50 VIH MT-2 μM. The source says:
Assessment of in vitro antiviral activity is usually performed to estimate parameters of antiviral potency and efficacy represented by the percentage of inhibition of HIV activity or IC50. The assay utilized is based on the use of recombinant viruses in which the nef gene, […] for in vitro HIV replication, has been replaced by a Renilla reporter gene so that viral replication can be quantified directly (García-Perez J et al, J Med Virol. 2007 February; 79(2):127-37). The assay was performed infecting MT-2 cells or PHA-activated PBMCs/IL-2 with viral supernatants obtained previously. The study was development in AIDS Immunopathology Unit, Nacional Center of Microbiology, Institute of Health Carlos 111, Majadahonda, Madrid, Spain.
All data are expressed as percentage relative to a control with DMSO at the same concentration. Antiviral activity and toxicity curves were performed to the compound at different concentrations.

Another data set concerns C. parapsilosis. The experiment in a line: Antifungal disk diffusion susceptibility test (CLSI M44). The settings on record: Lodderomyces parapsilosis, C. parapsilosis. On the procedure: (§6) Filamentous fungi and yeasts strains, from clinical origin, were supplied by Microbiology Service from The Princess Hospital, Madrid. They are detailed in Table IX.
(§7) Filamentous fungi and yeast cells suspensions in distilled water was prepared from a culture of 24-48 h, depending on species, in Sabouraud agar. Each suspension was adjusted to a fixed size inoculum of 1-5×10^8 CFU/ml with a spectrophotometer (Ferraro, MJ National Committee for Clinical Laboratory Standards. 2000).
(§8) Antifungal susceptibility tests were developed following the standardized methodology detailed in document CLSI: M44-4: Method for Antifungal Disk diffusion susceptibility testing of yeasts consisting of disk diffusion on agar Muller-Hinton (supplemented with 2% glucose).

A further data set concerns A. fumigatus. The description is as above. The settings on record: Aspergillus fumigatus, A. fumigatus. On the procedure:
as §6, §7, §8

A further data set has as its system A. flavus. The description is as above. The settings on record: Aspergillus flavus, A. flavus. Here is the method:
as §6, §7, §8

For a further data set, the system named is A. niger. The data set is described as above. As to conditions: Aspergillus niger, A. niger. Here is the method: as §6, §7, §8
The test system of another data set is S. cerevisiae. The description is as above. As to conditions: Saccharomyces cerevisiae, S. cerevisiae. On the procedure: as §6, §7, §8
A further data set has as its system C. albicans. The description is as above. As to conditions: Candida albicans, C. albicans. On the procedure: as §6, §7, §8
The subject of the next data set is C. lusitaniae. The data set is described as above. As to conditions: Clavispora lusitaniae, C. lusitaniae. On the procedure: as §6, §7, §8
For a further data set, the system named is C. guillermondii. Described as above. As to conditions: C. guillermondii. On the procedure:
as §6, §7, §8

Another data set concerns C. tropicalis. The description is as above. As to conditions: Candida tropicalis, C. tropicalis. Here is the method:
as §6, §7, §8

For the next data set, the system named is A. terreus. The data set is described as above. As to conditions: Aspergillus terreus, A. terreus. On the procedure: as §6, §7, §8
The next data set deals with N. cyriacigeorgica. As to the kind of experiment: Kirby-Bauer disk diffusion susceptibility test. As to conditions: for Antibiotic activity (Table VIII, zone of inhibition): 300 μg. On the procedure:
as §1, §2, §3, §4, §5

The next data set relates to N. carnea. The experiment in a line: Kirby-Bauer disk diffusion susceptibility test. The settings on record: for Antibiotic activity (Table VIII, zone of inhibition): 300 μg. On the procedure: as §1, §2, §3, §4, §5
Another data set deals with C. difficile. As to the kind of experiment: Kirby-Bauer disk diffusion susceptibility test. As to conditions: for Antibiotic activity (Table VIII, zone of inhibition): 300 μg. Here is the method:
as §1, §2, §3, §4, §5

Another data set relates to S. pyogenes. As to the kind of experiment: Kirby-Bauer disk diffusion susceptibility test. As to conditions: 300 μg/disc. Here is the method: as §1, §2, §3, §4, §5
The subject of a further data set is S. pneumoniae. As to the kind of experiment: Kirby-Bauer disk diffusion susceptibility test. The settings on record: for Antibiotic activity (Table VIII, zone of inhibition): 300 μg. On the procedure: as §1, §2, §3, §4, §5
Another data set has as its system K. pneumoniae. The experiment in a line: Kirby-Bauer disk diffusion susceptibility test. The settings on record: for Antibiotic activity (Table VIII, zone of inhibition): 300 μg. Here is the method: as §1, §2, §3, §4, §5
For another data set, the system named is T. pulmonis. As to the kind of experiment: Kirby-Bauer disk diffusion susceptibility test. As to conditions: for Antibiotic activity (Table VIII, zone of inhibition): 300 μg. Here is the method: as §1, §2, §3, §4, §5
The next data set concerns E. cloacae. As to the kind of experiment: Kirby-Bauer disk diffusion susceptibility test. The settings on record: 300 μg. On the procedure: as §1, §2, §3, §4, §5
A further data set relates to S. epidermidis. The experiment in a line: Kirby-Bauer disk diffusion susceptibility test. As to conditions: 300 μg. Here is the method:
as §1, §2, §3, §4, §5

The test system of a further data set is E. coli. As to the kind of experiment: Kirby-Bauer disk diffusion susceptibility test. As to conditions: 300 μg. Here is the method: as §1, §2, §3, §4, §5
For another data set, the system named is E. faecalis. As to the kind of experiment: Kirby-Bauer disk diffusion susceptibility test. The settings on record: E. foecalis; 300 μg. Here is the method: as §1, §2, §3, §4, §5
The next data set relates to E. faecium. As to the kind of experiment: Kirby-Bauer disk diffusion susceptibility test. The settings on record: 300 μg. On the procedure:
as §1, §2, §3, §4, §5

For a further data set, the system named is M. abscessus. The experiment in a line: Kirby-Bauer disk diffusion susceptibility test. As to conditions: 300 μg. On the procedure: as §1, §2, §3, §4, §5

In general, CC50 refers to the concentration at which the toxic effect on the cells reaches its halfway point. The pIC50 is −log10 of the IC50, conventionally taken in molar units. A word on the zone of inhibition: it is the extent of the growth-free halo in a diffusion test. A lower zone of inhibition goes with a weaker effect on the plate. As for `NNC(=O)C(=O)NNc1ccccc1` [MSG-119], the “Activity detected (mm)” value is 15 mm in the data set with P. aeruginosa (300 μg/disc) and 20 mm with A. baumannii (300 μg/disc). For the same compound, in [1], the CC50 was over 100 µM. Further, the pIC50 with HIV is 5.15. For the same compound, the zone of inhibition at 150 µg/disc is 15 mm in the data set with C. parapsilosis (150 μg/disc); 22 mm in the data set with A. fumigatus (150 μg/disc); 18 mm with A. flavus (150 μg/disc); 24 mm in the data set on A. niger (150 μg/disc); 26 mm with S. cerevisiae (150 μg/disc); 21 mm in the data set on C. albicans (150 μg/disc). The zone of inhibition at 150 µg/disc in the data set with C. lusitaniae (150 μg/disc) was under 10 mm; in the data set on C. guillermondii (150 μg/disc) it was 12 mm; in the data set with C. tropicalis (150 μg/disc) it was 20 mm; with A. terreus (150 μg/disc), 20 mm. Besides, the zone of inhibition at 500 µg/disc was over 40 mm in the data set with C. parapsilosis (500 μg/disc); over 40 mm in the data set on A. fumigatus (500 μg/disc); over 40 mm in the data set with A. flavus (500 μg/disc); over 40 mm in the data set on A. niger (500 μg/disc); 35 mm in the data set with S. cerevisiae (500 μg/disc); 24 mm in the data set on C. albicans (500 μg/disc). In addition, the zone of inhibition at 500 µg/disc is 20 mm with C. lusitaniae (500 μg/disc), over 40 mm in the data set on C. guillermondii (500 μg/disc), over 40 mm in the data set on C. tropicalis (500 μg/disc) and over 40 mm with A. terreus (500 μg/disc).

On to `NNC(=O)C(=O)NOc1ccccc1` [MSG-196], for which the “Activity detected (mm)” value in the data set with N. cyriacigeorgica (300 μg/disc) is reported as 34 mm; in the data set with N. carnea (300 μg/disc), 30 mm; in the data set on C. difficile (300 μg/disc) it was 18 mm; in the data set with S. pyogenes it was 20 mm; in the data set with S. pneumoniae (300 μg/disc), 20 mm; in the data set with K. pneumoniae (300 μg/disc), 13 mm. Further, in the data set on T. pulmonis (300 μg/disc), the “Activity detected (mm)” value amounted to 22 mm.

On to `NNC(=O)C(=O)NNc1ccc(OC(=O)c2ccccc2)cc1` [MSG-231], for which the Antibiotic activity (Table VIII, zone of inhibition) came out at 10 mm with E. cloacae; 33 mm in the data set on N. cyriacigeorgica; 33 mm in the data set with S. epidermidis; 11 mm in the data set on P. aeruginosa; 38 mm in the data set with N. carnea; 20 mm in the data set with A. baumannii. Also, the Antibiotic activity (Table VIII, zone of inhibition) in the data set on C. difficile worked out at 24 mm; in the data set with E. coli it was 17 mm; with E. faecalis, 29 mm; in the data set on S. pneumoniae it was 24 mm; in the data set with K. pneumoniae it was 10 mm; in the data set on E. faecium, 27 mm. In addition, the Antibiotic activity (Table VIII, zone of inhibition) with T. pulmonis and with M. abscessus was 27 mm each time.

Turning to `COc1ccccc1NNC(=O)C(=O)NN` [MSG-235], the Antibiotic activity (Table VIII, zone of inhibition) in the data set with E. cloacae came to 11 mm; in the data set on N. cyriacigeorgica, 29 mm; with S. epidermidis it was 27 mm; in the data set with P. aeruginosa it was 11 mm; in the data set with N. carnea it was 34 mm; in the data set with A. baumannii it was 15 mm. Moreover, the Antibiotic activity (Table VIII, zone of inhibition) with C. difficile amounted to 20 mm; with E. coli, 14 mm; with E. faecalis, 25 mm; with S. pneumoniae, 21 mm; with K. pneumoniae it was 12 mm; in the data set with E. faecium, 22 mm. Also, the Antibiotic activity (Table VIII, zone of inhibition) was determined as 24 mm with T. pulmonis and 23 mm with M. abscessus.
